Data taken from US6083964A, “Optical resolution of racemic aminoalkylpyridine anticonvulsants and (+) aminoalkylpyridine enantiomers as highly potent orally effective anticonvulsant drugs and excitatory amino acid antagonists” (K and K Biosciences, Inc., priority 1999, dated 2000).

Experiments:
[1] = test system: pentylenetetrazol (Metrazole) seizure threshold in mice; conditions: cited from earlier work; for amounts of PTZ required to produce the endpoints (in words): mouse, in vivo
[2] = test system: maximal electroshock seizure (MES) in mice; test: Maximal electroshock seizure (MES) test, mice, i.p.; format: in vivo, mouse (male Carworth Farms #1); conditions: for P.I. (protective index, TD50/ED50): MES; for ED50: Mus musculus, ip, MES test, read-out: ED50
Text: The (+) AAP enantiomers obtained by optical resolution of racemic AAPs and the resulting highly orally effective anticonvulsant compositions of this invention are useful in the treatment of convulsive disorders. […] A series of (+) AAP enantiomers and (-) AAP enantiomers of this invention has been evaluated for anticonvulsant activity by the intraperitoneal (i.p.) and by the oral (p.o.) route using two standard seizure models in the mouse and in the rat, the maximal electroshock seizure (MES) test and the subcutaneous pentylenetetrazol (Metrazole) seizure threshold (scMet) test. […] The following Table 2 presents the results of these anticonvulsant tests with respect to several (+) and (-) AAP enantiomeric compounds derived from optical resolution of racemic AAPs of the present invention. This Table 2 identifies the specific compounds tested by their chemical name and provides the test model, the route of administration, the animal species used, and the anticonvulsant activity and toxicity in terms of ED50 and TD50 values, (the median effective and toxic dose respectively), when intraperitoneally administered to mice, and when orally administered to rats. In mice, i.p.: All compounds are emulsified in 0.5% methylcellulose. The solvent has been tested for anticonvulsant and toxic effects and found to introduce no significant bias into the testing of anticonvulsant activity. The compounds are administered intraperitoneally in a volume of 0.01 ml/gm to male Carworth Farms #1 mice weighing about 20 gm. All compounds are tested at least at three dose levels (30, 100 and 300 mg/kg) at 30 minutes and 4 hours after their administration. The Maximal Electroshock Seizure Test (MES): Maximal electroshock seizures are elicited with a 60 Hz alternating current of 50 mA intensity in mice and about 150 mA intensity in rats (5-7 times that necessary to elicit minimal electroshock seizures), delivered for 0.2 sec via corneal electrodes. A drop of 0.9% saline is instilled in the eye prior to application of the electrodes in order to […]. Abolition of the hind limb tonic extension component of the seizure is defined as protection and results are expressed as number of animals protected/number of animals tested. The Subcutaneous Pentylenetetrazol (Metrazole) Seizure Threshold Test (scMet): A 0.5% solution of 85 mg/kg of pentylenetetrazol is administered subcutaneously in the posterior midline 30 minutes or 4 hours after drug administration to the animal. […] Anticonvulsant Quantification in Mice i.p.: The ED50 values are determined in the MES, scMet and rotorod ataxia test. To determine the ED50 values, five logarithmically spaced doses of the test compound are administered to animals (male Carworth Farms #1 mice) in groups of eight, to cover 0-100% protection, and the dose required to protect 50% of the animals (ED50) together with its 95% confidence limits, is determined graphically.

[3] = Neurotoxicity, rotorod ataxia test, mice, i.p.; design: species or system mouse (male Carworth Farms #1); conditions: mouse, in vivo, ip, TD50
Experimental: Neurotoxicity is determined by the rotorod ataxia test in mice and by the positional sense test and gait and stance test in the rat. The following Table 2 presents the results of these anticonvulsant tests with respect to several (+) and (-) AAP enantiomeric compounds derived from optical resolution of racemic AAPs of the present invention. This Table 2 identifies the specific compounds tested by their chemical name and provides the test model, the route of administration, the animal species used, and the anticonvulsant activity and toxicity in terms of ED50 and TD50 values, (the median effective and toxic dose respectively), when intraperitoneally administered to mice, and when orally administered to rats. In mice, i.p.: All compounds are emulsified in 0.5% methylcellulose. The solvent has been tested for anticonvulsant and toxic effects and found to introduce no significant bias into the testing of anticonvulsant activity. The compounds are administered intraperitoneally in a volume of 0.01 ml/gm to male Carworth Farms #1 mice weighing about 20 gm. All compounds are tested at least at three dose levels (30, 100 and 300 mg/kg) at 30 minutes and 4 hours after their administration. Neurotoxicity is evaluated in mice by the rotorod ataxia test. The animal is placed on a wooden rod of 1 and 1/8 diameter rotating at 6 rpm. Normal mice can remain on a rod rotating at this speed indefinitely. […] Anticonvulsant Quantification in Mice i.p.: The ED50 values are determined in the MES, scMet and rotorod ataxia test. To determine the ED50 values, five logarithmically spaced doses of the test compound are administered to animals (male Carworth Farms #1 mice) in groups of eight, to cover 0-100% protection, and the dose required to protect 50% of the animals (ED50) together with its 95% confidence limits, is determined graphically.

[4] = test system: maximal electroshock seizure (MES) in rats; test: Maximal electroshock seizure (MES) test, rats, p.o.; format: in vivo, rat (Sprague-Dawley); conditions: p.o.; for % protection (lowest and highest) during 4 hour period: 30 mg/kg, 5 time points 0.25-4 hours, 4 rats per point
Text: The (+) AAP enantiomers obtained by optical resolution of racemic AAPs and the resulting highly orally effective anticonvulsant compositions of this invention are useful in the treatment of convulsive disorders. […] A series of (+) AAP enantiomers and (-) AAP enantiomers of this invention has been evaluated for anticonvulsant activity by the intraperitoneal (i.p.) and by the oral (p.o.) route using two standard seizure models in the mouse and in the rat, the maximal electroshock seizure (MES) test and the subcutaneous pentylenetetrazol (Metrazole) seizure threshold (scMet) test. […] The following Table 2 presents the results of these anticonvulsant tests with respect to several (+) and (-) AAP enantiomeric compounds derived from optical resolution of racemic AAPs of the present invention. This Table 2 identifies the specific compounds tested by their chemical name and provides the test model, the route of administration, the animal species used, and the anticonvulsant activity and toxicity in terms of ED50 and TD50 values, (the median effective and toxic dose respectively), when intraperitoneally administered to mice, and when orally administered to rats. The Maximal Electroshock Seizure Test (MES): Maximal electroshock seizures are elicited with a 60 Hz alternating current of 50 mA intensity in mice and about 150 mA intensity in rats (5-7 times that necessary to elicit minimal electroshock seizures), delivered for 0.2 sec via corneal electrodes. A drop of 0.9% saline is instilled in the eye prior to application of the electrodes in order to […]. Abolition of the hind limb tonic extension component of the seizure is defined as protection and results are expressed as number of animals protected/number of animals tested. The Subcutaneous Pentylenetetrazol (Metrazole) Seizure Threshold Test (scMet): A 0.5% solution of 85 mg/kg of pentylenetetrazol is administered subcutaneously in the posterior midline 30 minutes or 4 hours after drug administration to the animal. […] This species will be the subject of the complete anticonvulsant quantification test evaluation as described above, but after oral (gavage) administration of the candidate compound.

[5] = Neurological deficit, positional sense test and gait and stance test, rats, p.o.; design: species or system rat (Sprague-Dawley); conditions: rat, in vivo, po
Experimental: Neurotoxicity is determined by the rotorod ataxia test in mice and by the positional sense test and gait and stance test in the rat. The following Table 2 presents the results of these anticonvulsant tests with respect to several (+) and (-) AAP enantiomeric compounds derived from optical resolution of racemic AAPs of the present invention. This Table 2 identifies the specific compounds tested by their chemical name and provides the test model, the route of administration, the animal species used, and the anticonvulsant activity and toxicity in terms of ED50 and TD50 values, (the median effective and toxic dose respectively), when intraperitoneally administered to mice, and when orally administered to rats. […] This species will be the subject of the complete anticonvulsant quantification test evaluation as described above, but after oral (gavage) administration of the candidate compound. […] Neurological deficit in rats is examined by the positional sense test and gait and stance test. […] Inability to do so rapidly indicates a neurologic deficit. In the gait and stance test, a neurologic deficit is indicated by a circular or a zigzag gait, ataxia, abnormal spread of the legs, abnormal body posture, tremor, hyperactivity, lack of exploratory behavior, somnolence, stupor, or catalepsy.

[6] = test system: maximal electroshock seizure (MES) in mice; conditions: mouse, in vivo; cited from earlier work

CCCC(CCC)C(=O)O [valproic acid]
amounts of PTZ required to produce the endpoints (in words) [1]: increase the amounts of PTZ required to produce the above endpoints

CCC(Nc1ccc(Cl)c(Cl)c1)c1ccncc1 (single isomer, unassigned; (+)) [Compound 9, (+) N-(3,4-Dichlorophenyl)-1-(4-pyridyl)propylamine]
P.I. (protective index, TD50/ED50) ([2]; listed as (5) (+) Enantiomer): 3.0 | ED50 [2]: 91.9 mg/kg | TD50 [3]: 279 mg/kg | % protection (lowest and highest) during 4 hour period ([4]; rat, MES, listed as (5) (+) Enantiomer): 0-75%

CCC1(c2ccccc2)C(=O)NC(=O)NC1=O [phenobarbital]
amounts of PTZ required to produce the endpoints (in words) [1]: increase the amounts of PTZ required to produce the above endpoints

CCC1(C)CC(=O)NC1=O (centres unmarked) [ethosuximide]
amounts of PTZ required to produce the endpoints (in words) [1]: increase the amounts of PTZ required to produce the above endpoints

CCC(Nc1ccc(Cl)cc1)c1ccncc1 (single isomer, unassigned; (+)) [Compound 7, (+) N-(4-Chlorophenyl)-1-(4-pyridyl)propylamine]
P.I. (protective index, TD50/ED50) ([2]; listed as (4) (+) Enantiomer): 2.9 | ED50 [2]: 109 mg/kg | TD50 [3]: 322 mg/kg | % protection (lowest and highest) during 4 hour period ([4]; rat, MES, listed as (4) (+) Enantiomer): 0-75%

CC(Nc1ccc(Cl)c(Cl)c1)c1ccncc1 (single isomer, unassigned; (+)) [Compound 5, (+) N-(3,4-Dichlorophenyl)-1-(4-pyridyl)ethylamine]
P.I. (protective index, TD50/ED50) ([2]; listed as (3) (+) Enantiomer): > 6.6 | ED50 [2]: 76.1 mg/kg | TD50 [3]: > 500 mg/kg | ED50 ([4]; Rattus norvegicus, po, MES test, read-out: ED50): 32.3 mg/kg | % protection (lowest and highest) during 4 hour period ([4]; rat, MES, listed as (3) (+) Enantiomer): 0-100% | P.I. (protective index, TD50/ED50) ([4]; rat, MES): > 15.5 | TD50 [5]: > 500 mg/kg

Cc1cccc(C)c1OCC(C)N (centres unmarked) [Mexiletine]
seizure threshold (in words) ([1]; doses slightly above the MES ED50 in mice): lowers seizure threshold at doses slightly above the MES ED50 in mice | MES test activity (in words) [6]: potent in the MES test
